# Results as given in patent publication US9724312B2, “Agent for the prevention, improvement or treatment of retinal disease” (ROHTO PHARMACEUTICAL CO., LTD., priority 2012, dated 2017).
# Legend:
# PC12 = test: Protective effect against ischemic cell death induced by hypoxia and low glucose (Cell Titer-Glo cell viability); format: cell-based, rat; conditions: 30 μM, 2 h pre-incubation, then low glucose/zero percent O2 8 h, FIG. 1, n=10, Tukey-Kramer
# Excerpt: The progress of visual impairment in glaucoma is associated with retinal ganglion cell (RGC) death due to blood flow failure occurring near the optic nerve (Folia Pharmacol. Jpn. 128, 255-258 (2006)). With the use of PC12, which is a typical neural cell line established from rat adrenal […] pheochromocytoma and used also as a model cell for the functional evaluation of RGC (J Neurosci Res. 2000 May 15; 60(4): 495-503), the cytoprotective effect of GGA against ischemic cell death induced by hypoxia and low glucose was evaluated.
# Test samples were prepared as follows. The test substances were four types of GGAs that contain the all-trans form and the 5Z-mono-cis form at a weight ratio of 10:0, 8:2, 6:4, and 0:10, respectively. […]
# After 8 hours of incubation, 100 μL of an equivalent mixture of a cell viability detection reagent Cell Titer-Glo (Promega) and PBS was added to each well and the luminescence produced by the reaction with ATP in living cells was measured with a luminometer (GloMax; Promega). The cell viability was calculated from the measured luminescence by the following formula and the cytoprotective effect of GGA against oxidative stress by hydrogen peroxide was examined. Cell viability(%)=100×[(luminescence of base- or GGA-treated group)/(luminescence of non-treated group)]
# [1] = system: rat-derived retinal ganglion cells (RGC); test: Neurite outgrowth inducing effect in culture system of rat-derived retinal ganglion cells; format: cell-based; conditions: all-trans form content 3 μM, 48 h; FIG. 2 and 3; n=4, Tukey-Kramer
# Excerpt: The progress of visual impairment in glaucoma is associated with retinal ganglion cell (RGC) death due to blood flow failure occurring near the optic nerve (Folia Pharmacol. Jpn. 128, 255-258 (2006)). Accordingly, a culture system of rat-derived retinal neurons (Current protocols in Neuroscience 3.22.1-3.22.10, October 2010), which is widely used as one of study tools for optic nerve diseases such as a glaucoma, was used to examine the neurite outgrowth inducing effect of GGA.
# Four-day-old Wistar rats (Japan SLC, Inc.) were euthanized by cervical dislocation and the eyeballs were harvested. The harvested eyeballs were immersed in 70% ethanol for 10 seconds and transferred to a Hanks' balanced salt solution containing 100 U/mL penicillin and 100 μg/mL streptomycin. Under a stereoscopic microscope, the corneas, irises, crystalline lenses, and vitreous bodies were removed using scissors for surgery and forceps, and the retinal tissue was harvested. The harvested retinal tissue was transferred to a centrifugation tube containing 5 mL of a basal medium for neuronal cells (Neurobasal, Invitrogen) containing 100 U/mL penicillin, 100 μg/mL streptomycin, a neural cell culture supplement (B27™-Supplement, Invitrogen), 1 μM L-cysteine (Kyowa Hakko Bio) and 15 U/mL papain (Sigma Aldrich) and incubated at 37° C. for 30 minutes. […]
smiles,measurement,setting,value
"CC(=O)CC/C=C(\C)CC/C=C(\C)CC/C=C(\C)CCC=C(C)C [all-trans form, (5E,9E,13E)-6,10,14,18-tetramethyl-5,9,13,17-nonadecatetrae n-2-one]",cytoprotective effect compared with GGA 6:4,PC12,significantly higher cytoprotective effects
same,neurite inducing effect (mean length of neurites of RGC) compared with GGA 6:4 and base,[1],significant neurite inducing effect
